Experiments:
wildtype LRRK2 = biological target: T1, wildtype LRRK2 (Homo sapiens, UniProt Q5S007); test: LRRK2 degradation HiBit assay, wildtype LRRK2 tagged with a HiBit tag in HEK293 cells; assay type: cell-based; details: 24 hours compound incubation; for Dmax: read-out: ** WT Dmax (%); for DC50: read-out: *WT DC50
T1 construct: endogenous in cells; host or cells: HEK293 with HiBit knocked in at the 3' end of the endogenous LRRK2 gene, stably expressing firefly luciferase
Description: (§1) The assay measures the degradation of wildtype and G2019S LRRK2 tagged with a HiBit tag on the C-terminus of the protein that was expressed from a mammalian expression vector, driven by the ubiquitin promoter in HEK293 cells. Each compound dose-response was repeated on two separate days, on three separate plates each day.
(§2) Plasmid Preparation. Transfection mixes were assembled as follows and incubated for 30 minutes at room temperature. In a 15 mL tube, 5.25 mL Opti-MEM (no additions) was mixed with 17 μL Firefly Luciferase plasmid at 1 μg/μL and 158 μL WT plasmid DNA at 1 μg/μL (175 μg total DNA) were mixed by flicking. In a new 15 mL tube, 5.25 mL OptiMEM was mixed with 17 μL Firefly Luciferase plasmid at 1 μg/μL and 158 μL G2019S plasmid DNA at 1 μg/μL (175 μg total DNA) were mixed by flicking. X-tremeGene HP was mixed thoroughly using a vortex. Next, 175 μL was added to each tube and flicked to mix. Both tubes were left to incubate for 30 minutes at room temperature.
While the transfection mixes were incubating, HEK293 cells (acquired from ATCC; ATCC CRL-1573) were harvested with trypsin. Once cells are detached, the cells were resuspended in 12 mL OptiMEM+5% FBS and transferred to a 50 mL tube. The cells were mixed well and counted. Using OptiMEM+5% FBS, the cells were diluted in two 250 mL conical tubes at 0.71×10^6 cells/mL in 70 mL. One tube was labeled “WT” and the other “G2019S”. The WT and G2019S transfection mixes were added dropwise to the corresponding 250 mL tubes. The tubes were mixed first by pipetting then by swirling. The tubes were incubated at room temperature for at least 5 minutes.
(§3) Each tube was swirled before dispensing and after every three plates. Seventy microliters of cells were dispensed with WT or G2019S DNA to seven plates each. Three plates of each were tested with compound plate one (preparation described below) and three plates of each were tested with compound plate two (preparation described below). The first plate from each set served as a “prime” plate and was not used to test compounds. Each plate was incubated in the hood for 10 minutes before placing in the 37° C. incubator for 24 hours.
(§4) Preparation of Compound and Assay Plates. Two compound plates were made using 96 well polypropylene plates. Compounds were made up at 10 mM and were diluted to 1 mM in 30 μL. Each dose response curve included a well of DMSO, as a negative control and for normalization, and a well of 0.5 μM of Exemplary Compound 4 as a positive control. In addition to seven test compounds, each plate also included a dose response of Exemplary Compound 4. The compound plates were spun down along at 1200 rpm for 2 minutes.
(§5) The two compound plates were then mixed and 2 μL was diluted in intermediate plates having 248 μL of Opti-Mem in each well. Next, 10 μL diluted compounds from the intermediate plates were added to each test plate (three WT and three G2019S plates per compound plate for a total of 12 assay plates). The plates were incubated for 24 hours at 37° C.
(§6) All assay plates and all Nano-Glo Dual-Luciferase Reporter Assay System components (except for the DLR substrate) were equilibrated to room temperature. Next, the luciferase buffer was mixed with the lyophilized amber bottle until fully dissolved, and 75 μL of the luciferase mixture was added to each well of each assay plate. The assay plates were incubated for 10 minutes at room temperature with shaking for at least 5 minutes, and then read on a plate reader.
(§7) Developing Plates and Analyzing Data. One milliliter of DLR substrate and 1 mL LgBiT Protein were added to the Stop and Glo buffer, and 75 μL of the mixture was added to each well of each plate. Optically clear seals were added to each plate and each plate was incubated for 20 minutes with shaking for at least 10 minutes, and then read on a plate reader. […]

G2019S LRRK2 = biological target: T2, G2019S LRRK2 (Homo sapiens, UniProt Q5S007, G2019S); test: LRRK2 degradation HiBit assay, G2019S LRRK2 tagged with a HiBit tag expressed in HEK293 cells; assay type: cell-based; details: 24 hours compound incubation; for Dmax: HEK293, HEK293 cells; for DC50: HEK293 cells
T2 construct: expressed in transfected cells; host or cells: HEK293 (ATCC CRL-1573)
Description: as §1, with “three” for “two”
as §2
While the transfection mixes were incubating, HEK293 cells acquired from ATCC (ATCC CRL-1573) were harvested with trypsin. Once cells are detached, the cells were resuspended in 12 mL OptiMEM+5% FBS and transferred to a 50 mL tube. The cells were mixed well and counted. Using OptiMEM+5% FBS, the cells were diluted in two 250 mL conical tubes at 0.71×10^6 cells/mL in 70 mL. One tube was labeled “WT” and the other “G2019S”. The WT and G2019S transfection mixes were added dropwise to the corresponding 250 mL tubes. The tubes were mixed first by pipetting then by swirling. The tubes were incubated at room temperature for at least 5 minutes.
as §3, §4, §5, §6, §7

T2 sequence (Q5S007 whole entry G2019S): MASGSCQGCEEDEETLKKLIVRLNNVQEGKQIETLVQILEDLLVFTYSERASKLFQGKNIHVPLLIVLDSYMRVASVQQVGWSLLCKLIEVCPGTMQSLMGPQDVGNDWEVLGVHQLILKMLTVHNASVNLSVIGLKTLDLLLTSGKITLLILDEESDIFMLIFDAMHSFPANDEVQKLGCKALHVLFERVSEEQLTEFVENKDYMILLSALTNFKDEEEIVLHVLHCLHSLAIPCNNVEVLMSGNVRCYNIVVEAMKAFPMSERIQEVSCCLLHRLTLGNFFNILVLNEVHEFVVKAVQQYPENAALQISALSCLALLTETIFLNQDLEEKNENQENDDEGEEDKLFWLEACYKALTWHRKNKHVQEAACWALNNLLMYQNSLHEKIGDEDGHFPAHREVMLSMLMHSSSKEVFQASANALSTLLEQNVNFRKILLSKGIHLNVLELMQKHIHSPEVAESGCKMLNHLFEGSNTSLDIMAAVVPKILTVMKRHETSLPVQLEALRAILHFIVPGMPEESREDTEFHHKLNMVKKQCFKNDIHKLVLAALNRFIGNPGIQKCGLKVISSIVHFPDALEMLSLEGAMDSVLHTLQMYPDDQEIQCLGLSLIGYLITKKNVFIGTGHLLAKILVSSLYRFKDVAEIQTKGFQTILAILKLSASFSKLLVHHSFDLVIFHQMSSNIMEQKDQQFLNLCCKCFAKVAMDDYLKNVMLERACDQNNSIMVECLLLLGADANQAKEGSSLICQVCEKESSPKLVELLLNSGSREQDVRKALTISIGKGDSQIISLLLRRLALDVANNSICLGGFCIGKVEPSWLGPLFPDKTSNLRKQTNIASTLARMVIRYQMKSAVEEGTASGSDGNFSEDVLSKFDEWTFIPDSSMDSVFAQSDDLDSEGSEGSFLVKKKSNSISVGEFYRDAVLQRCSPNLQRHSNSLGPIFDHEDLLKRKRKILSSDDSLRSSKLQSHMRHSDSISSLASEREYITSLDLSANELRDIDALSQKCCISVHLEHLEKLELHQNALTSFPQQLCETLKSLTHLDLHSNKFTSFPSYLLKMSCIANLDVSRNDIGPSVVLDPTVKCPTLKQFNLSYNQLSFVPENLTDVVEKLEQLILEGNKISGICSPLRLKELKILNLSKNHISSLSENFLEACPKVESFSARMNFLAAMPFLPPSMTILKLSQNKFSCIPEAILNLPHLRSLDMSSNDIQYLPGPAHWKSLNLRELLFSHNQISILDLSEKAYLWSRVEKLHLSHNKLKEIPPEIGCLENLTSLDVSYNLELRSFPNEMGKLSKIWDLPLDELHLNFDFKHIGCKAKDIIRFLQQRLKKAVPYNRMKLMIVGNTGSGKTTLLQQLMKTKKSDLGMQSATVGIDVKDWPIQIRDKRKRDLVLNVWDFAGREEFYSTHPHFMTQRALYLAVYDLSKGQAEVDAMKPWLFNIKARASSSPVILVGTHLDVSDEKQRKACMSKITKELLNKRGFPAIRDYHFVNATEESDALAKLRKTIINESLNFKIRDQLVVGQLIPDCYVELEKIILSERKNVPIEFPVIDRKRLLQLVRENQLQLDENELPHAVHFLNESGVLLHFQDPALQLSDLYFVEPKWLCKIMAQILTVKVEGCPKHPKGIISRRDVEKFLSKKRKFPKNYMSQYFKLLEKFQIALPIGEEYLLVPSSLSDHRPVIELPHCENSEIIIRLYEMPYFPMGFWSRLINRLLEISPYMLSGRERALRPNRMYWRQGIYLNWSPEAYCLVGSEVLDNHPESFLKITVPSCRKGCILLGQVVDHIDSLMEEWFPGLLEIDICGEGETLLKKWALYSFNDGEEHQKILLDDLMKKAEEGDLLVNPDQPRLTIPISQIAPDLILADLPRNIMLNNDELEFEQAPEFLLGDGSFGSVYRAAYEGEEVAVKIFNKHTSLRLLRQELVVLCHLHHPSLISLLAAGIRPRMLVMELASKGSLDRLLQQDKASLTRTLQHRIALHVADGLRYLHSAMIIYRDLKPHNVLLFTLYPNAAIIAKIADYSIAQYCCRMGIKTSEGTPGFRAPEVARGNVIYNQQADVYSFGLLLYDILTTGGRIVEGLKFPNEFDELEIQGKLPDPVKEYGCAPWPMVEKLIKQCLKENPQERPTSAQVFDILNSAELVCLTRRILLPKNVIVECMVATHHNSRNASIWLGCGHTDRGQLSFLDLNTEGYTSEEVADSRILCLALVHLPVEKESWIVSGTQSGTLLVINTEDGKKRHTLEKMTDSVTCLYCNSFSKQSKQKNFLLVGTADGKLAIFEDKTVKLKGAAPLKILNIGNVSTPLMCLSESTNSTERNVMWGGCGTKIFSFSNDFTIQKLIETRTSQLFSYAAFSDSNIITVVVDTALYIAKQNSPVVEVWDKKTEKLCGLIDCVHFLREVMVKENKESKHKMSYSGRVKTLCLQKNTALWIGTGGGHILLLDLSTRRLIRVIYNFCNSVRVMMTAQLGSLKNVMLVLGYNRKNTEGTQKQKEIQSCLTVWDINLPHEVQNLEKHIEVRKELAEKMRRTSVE
T1 sequence (Q5S007 whole entry): as the sequence (Q5S007 whole entry G2019S) above, with S2019G counted along it

Dmax (wildtype LRRK2) [%] | DC50 (wildtype LRRK2) [nM] | Dmax (G2019S LRRK2) [%] | DC50 (G2019S LRRK2) [nM] | SMILES
50 to 70 | < 10 | 50 to 70 | < 10 | CC1=C(C(=O)Nc2ccc3[nH]nc(-c4ccnc(N5CCN(CC(F)(F)C6CCN(CC7CCN(c8ccc9c(c8)C(=O)N(C8CCC(=O)NC8=O)C9=O)CC7)CC6)CC5)c4)c3c2)[C@@H](C)n2nnnc2N1C (stereo partly drawn) [compound 22, (7R)-N-(3-(2-(4-(2-(1-((1-(2-(2,6-dioxopiperidin-3-yl)-1,3-dioxoisoindolin-5-yl)piperidin-4-yl)methyl)piperidin-4-yl)-2,2-difluoroethyl)piperazin-1-yl)pyridin-4-yl)-1H-indazol-5-yl)-4,5,7-trimethyl-4,7-dihydrotetrazolo[1,5-a]pyrimidine-6-carboxamide]
< 50 | ≥ 100 | 50 to 70 | 50 to 100 | CC1=C(C(=O)Nc2ccc3[nH]nc(-c4ccnc(N5CCN(CC6CCN(C7CCN(c8ccc9c(c8)C(=O)N(C8CCC(=O)NC8=O)C9=O)CC7)CC6)CC5)c4)c3c2)[C@@H](C)n2nnnc2N1C (stereo partly drawn) [compound 18, (7R)-N-(3-(2-(4-((1-(1-(2-(2,6-dioxopiperidin-3-yl)-1,3-dioxoisoindolin-5-yl)piperidin-4-yl)piperidin-4-yl)methyl)piperazin-1-yl)pyridin-4-yl)-1H-indazol-5-yl)-4,5,7-trimethyl-4,7-dihydrotetrazolo[1,5-a]pyrimidine-6-carboxamide]
– | ≥ 100 | – | ≥ 100 | CC1=C(C(=O)Nc2ccc3[nH]nc(-c4ccnc(N5C[C@@H](C)N(CCOCCN6CCN(c7ccc8c(c7)C(=O)N(C7CCC(=O)NC7=O)C8=O)CC6)[C@@H](C)C5)c4)c3c2)Cn2nnnc2N1C (stereo partly drawn) [compound 3, N-(3-(2-((3R,5S)-4-(2-(2-(4-(2-(2,6-dioxopiperidin-3-yl)-1,3-dioxoisoindolin-5-yl)piperazin-1-yl)ethoxy)ethyl)-3,5-dimethylpiperazin-1-yl)pyridin-4-yl)-1H-indazol-5-yl)-4,5-dimethyl-4,7-dihydrotetrazolo[1,5-a]pyrimidine-6-carboxamide]
< 50 | 50 to 100 | < 50 | 10 to 50 | CC1=C(C(=O)Nc2ccc3[nH]nc(-c4ccnc(N5CCN(CC6CCN(CC7CCN(c8ccc9c(c8)C(=O)N(C8CCC(=O)NC8=O)C9=O)CC7)CC6)CC5)c4)c3c2)[C@@H](C)n2nnnc2N1C (stereo partly drawn) [compound 11, (7R)-N-(3-(2-(4-((1-((1-(2-(2,6-dioxopiperidin-3-yl)-1,3-dioxoisoindolin-5-yl)piperidin-4-yl)methyl)piperidin-4-yl)methyl)piperazin-1-yl)pyridin-4-yl)-1H-indazol-5-yl)-4,5,7-trimethyl-4,7-dihydrotetrazolo[1,5-a]pyrimidine-6-carboxamide]
50 to 70 | 50 to 100 | 50 to 70 | 10 to 50 | CC1=C(C(=O)Nc2ccc3[nH]nc(-c4ccnc(N5CCN(CCN6CCC(CC7CCN(c8ccc9c(c8)C(=O)N(C8CCC(=O)NC8=O)C9=O)CC7)CC6)CC5)c4)c3c2)[C@@H](C)n2nnnc2N1C (stereo partly drawn) [compound 23, (7R)-N-(3-(2-(4-(2-(4-((1-(2-(2,6-dioxopiperidin-3-yl)-1,3-dioxoisoindolin-5-yl)piperidin-4-yl)methyl)piperidin-1-yl)ethyl)piperazin-1-yl)pyridin-4-yl)-1H-indazol-5-yl)-4,5,7-trimethyl-4,7-dihydrotetrazolo[1,5-a]pyrimidine-6-carboxamide]
– | ≥ 100 | 50 to 70 | ≥ 100 | CC1=C(C(=O)Nc2ccc3[nH]nc(-c4ccnc(N5CCN(CCN6CCC(CN7CCN(c8ccc9c(c8)C(=O)N(C8CCC(=O)NC8=O)C9=O)CC7)CC6)CC5)c4)c3c2)[C@H](C)n2nnnc2N1C (stereo partly drawn) [compound 27, (7S)-N-{3-[2-(4-{2-[4-({4-[2-(2,6-dioxopiperidin-3-yl)-1,3-dioxo-2,3-dihydro-1H-isoindol-5-yl]piperazin-1-yl}methyl)piperidin-1-yl]ethyl}piperazin-1-yl)pyridin-4-yl]-1H-indazol-5-yl}-4,5,7-trimethyl-4H,7H-[1,2,3,4]tetrazolo[1,5-a]pyrimidine-6-carboxamide]
– | ≥ 100 | ≥ 70 | ≥ 100 | CC1=C(C(=O)Nc2ccc3[nH]nc(-c4ccnc(N5CC6(CN(CC7CCN(c8ccc9c(c8)C(=O)N(C8CCC(=O)NC8=O)C9=O)CC7)C6)C5)c4)c3c2)[C@@H](C)n2nnnc2N1C (stereo partly drawn) [compound 26, (7R)-N-(3-{2-[6-({1-[2-(2,6-dioxopiperidin-3-yl)-1,3-dioxo-2,3-dihydro-1H-isoindol-5-yl]piperidin-4-yl}methyl)-2,6-diazaspiro[3.3]heptan-2-yl]pyridin-4-yl}-1H-indazol-5-yl)-4,5,7-trimethyl-4H,7H-[1,2,3,4]tetrazolo[1,5-a]pyrimidine-6-carboxamide]
50 to 70 | ≥ 100 | 50 to 70 | 10 to 50 | CC1=C(C(=O)Nc2ccc3[nH]nc(-c4ccnc(N5CCN(CCCN6CCN(c7ccc8c(c7)C(=O)N(C7CCC(=O)NC7=O)C8=O)CC6)CC5)c4)c3c2)[C@@H](C)n2nnnc2N1C (stereo partly drawn) [compound 15, (7R)-N-(3-(2-(4-(3-(4-(2-(2,6-dioxopiperidin-3-yl)-1,3-dioxoisoindolin-5-yl)piperazin-1-yl)propyl)piperazin-1-yl)pyridin-4-yl)-1H-indazol-5-yl)-4,5,7-trimethyl-4,7-dihydrotetrazolo[1,5-a]pyrimidine-6-carboxamide]
50 to 70 | ≥ 100 | < 50 | 50 to 100 | CC1=C(C(=O)Nc2ccc3[nH]nc(-c4ccnc(N5CCN(CCC6CCN(CC7CCN(c8ccc9c(c8)C(=O)N(C8CCC(=O)NC8=O)C9=O)CC7)CC6)CC5)c4)c3c2)[C@@H](C)n2nnnc2N1C (stereo partly drawn) [compound 14, (7R)-N-(3-(2-(4-(2-(1-((1-(2-(2,6-dioxopiperidin-3-yl)-1,3-dioxoisoindolin-5-yl)piperidin-4-yl)methyl)piperidin-4-yl)ethyl)piperazin-1-yl)pyridin-4-yl)-1H-indazol-5-yl)-4,5,7-trimethyl-4,7-dihydrotetrazolo[1,5-a]pyrimidine-6-carboxamide]
– | ≥ 100 | < 50 | 10 to 50 | CC1=C(C(=O)Nc2ccc3[nH]nc(-c4ccnc(N5CCN(CCN6CCN(CC7CCN(c8ccc9c(c8)C(=O)N(C8CCC(=O)NC8=O)C9=O)CC7)CC6)CC5)c4)c3c2)C(C)(C)n2nnnc2N1C (centres unmarked) [compound 35, N-{3-[2-(4-{2-[4-({1-[2-(2,6-dioxopiperidin-3-yl)-1,3-dioxo-2,3-dihydro-1H-isoindol-5-yl]piperidin-4-yl}methyl)piperazin-1-yl]ethyl}piperazin-1-yl)pyridin-4-yl]-1H-indazol-5-yl}-4,5,7,7-tetramethyl-4H,7H-[1,2,3,4]tetrazolo[1,5-a]pyrimidine-6-carboxamide]

Reference: patent US12473294B2, “Selective modulators of mutant LRRK2 proteolysis and associated methods of use” (Arvinas Operations, Inc., priority 2020, dated 2025)
